Results from ChEMBL document CHEMBL3585316, “Discovery, bioactivity and docking simulation of Vorinostat analogues containing 1,2,4-oxadiazole moiety as potent histone deacetylase inhibitors and antitumor agents” (Bioorg Med Chem, 2015).
pIC50: −log10 of the molar value.

What was measured:
A549 = assay: cells; settings: Homo sapiens, A549, 72 h
Description: Antiproliferative activity against human A549 cells incubated for 72 hrs by MTT assay

U-937 = assay: Antiproliferative activity against human U937 cells incubated for 72 hrs by MTT assay; type: functional, cell-based; settings: U-937, 72 h
Histone deacetylase 8 = target: T1, Histone deacetylase 8 (Homo sapiens, UniProt Q9BY41); assay: Inhibition of recombinant HDAC8 (unknown origin) incubated for 10 mins using Boc-Lys(acetyl)-AMC fluorogenic substrate by homogeneous fluorescence release assay
T1 sequence (Q9BY41 whole entry): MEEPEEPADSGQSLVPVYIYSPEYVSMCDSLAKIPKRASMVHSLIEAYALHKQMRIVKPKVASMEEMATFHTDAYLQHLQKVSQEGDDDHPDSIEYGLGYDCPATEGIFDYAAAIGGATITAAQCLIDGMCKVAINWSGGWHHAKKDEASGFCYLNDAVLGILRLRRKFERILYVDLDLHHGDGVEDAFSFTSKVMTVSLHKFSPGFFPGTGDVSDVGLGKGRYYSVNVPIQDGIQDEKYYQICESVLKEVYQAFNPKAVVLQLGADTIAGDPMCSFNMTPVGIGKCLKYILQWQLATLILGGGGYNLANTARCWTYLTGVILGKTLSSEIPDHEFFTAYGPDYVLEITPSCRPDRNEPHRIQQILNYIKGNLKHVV

Histone deacetylase 2 = Histone deacetylase 2 (Homo sapiens, UniProt Q92769); assay: Inhibition of recombinant HDAC2 (unknown origin) incubated for 10 mins using Boc-Lys(acetyl)-AMC fluorogenic substrate by homogeneous fluorescence release assay
NCI-H661 = assay: Antiproliferative activity against human NCI-H661 cells incubated for 72 hrs by MTT assay; type: functional, cell-based; settings: NCI-H661, 72 h
Histone deacetylase 1 = Histone deacetylase 1 (Homo sapiens, UniProt Q13547); assay: Inhibition of recombinant HDAC1 (unknown origin) incubated for 10 mins using Boc-Lys(acetyl)-AMC fluorogenic substrate by homogeneous fluorescence release assay
Histone deacetylase [1] = assay: Inhibition of histone deacetylase (unknown origin) by cell-free assay; type: protein assay, Homo sapiens
Histone deacetylase [2] = assay: Inhibition of histone deacetylase (unknown origin) by intracellular cell based assay; set-up: species or system Homo sapiens

Chain of Histone deacetylase 1 (Q13547 whole entry): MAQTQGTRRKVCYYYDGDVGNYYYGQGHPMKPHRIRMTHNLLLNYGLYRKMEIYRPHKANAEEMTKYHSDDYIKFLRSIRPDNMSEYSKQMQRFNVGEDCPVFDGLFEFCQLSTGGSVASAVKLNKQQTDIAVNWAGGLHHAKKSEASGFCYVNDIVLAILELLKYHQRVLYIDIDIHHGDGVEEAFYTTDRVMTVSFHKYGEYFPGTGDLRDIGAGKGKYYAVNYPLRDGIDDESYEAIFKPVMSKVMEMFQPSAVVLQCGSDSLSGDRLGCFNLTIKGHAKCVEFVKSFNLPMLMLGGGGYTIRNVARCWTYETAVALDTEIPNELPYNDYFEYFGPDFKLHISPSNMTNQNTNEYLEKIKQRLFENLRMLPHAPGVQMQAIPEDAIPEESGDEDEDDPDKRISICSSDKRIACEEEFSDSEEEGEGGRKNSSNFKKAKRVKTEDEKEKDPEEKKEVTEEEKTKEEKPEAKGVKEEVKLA
Chain of Histone deacetylase 2 (Q92769 whole entry): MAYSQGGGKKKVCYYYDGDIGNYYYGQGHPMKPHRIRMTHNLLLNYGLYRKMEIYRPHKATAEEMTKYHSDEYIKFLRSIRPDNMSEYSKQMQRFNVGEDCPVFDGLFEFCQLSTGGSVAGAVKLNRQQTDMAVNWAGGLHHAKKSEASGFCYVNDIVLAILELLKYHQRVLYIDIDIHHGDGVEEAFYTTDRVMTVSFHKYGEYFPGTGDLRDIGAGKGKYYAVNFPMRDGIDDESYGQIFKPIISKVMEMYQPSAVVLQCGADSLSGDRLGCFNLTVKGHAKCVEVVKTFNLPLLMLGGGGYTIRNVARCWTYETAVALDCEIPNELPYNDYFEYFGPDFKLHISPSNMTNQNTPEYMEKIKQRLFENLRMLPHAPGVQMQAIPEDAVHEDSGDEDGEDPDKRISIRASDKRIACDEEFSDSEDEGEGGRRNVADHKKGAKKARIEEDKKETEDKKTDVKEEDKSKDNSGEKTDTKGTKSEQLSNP

SMILES | pIC50 (A549) | pIC50 (U-937) | pIC50 (Histone deacetylase 8) | pIC50 (Histone deacetylase 2) | pIC50 (NCI-H661) | pIC50 (Histone deacetylase 1) | IC50 (Histone deacetylase [1]) [µM] | IC50 (Histone deacetylase [2]) [µM]
O=C(CCCCCCc1nc(-c2ccccc2Cl)no1)C(F)(F)F | 5.21 | 6.04 | 6.15 | 5.80 | 5.90 | 5.12 | – | –
O=C(CCCCCCc1nc(-c2ccccc2)no1)NO | 5.15 | 5.90 | 5.69 | 5.93 | 4.76 | 6.42 | – | –
Cc1ccc(-c2noc(CCCCCCC(=O)NO)n2)cc1 | 5.24 | 5.87 | 5.27 | 5.56 | 4.80 | 6.31 | – | –
COc1ccc(-c2noc(CCCCCCC(=O)NO)n2)cc1 | 4.87 | 5.44 | < 5.00 | < 5.00 | 4.69 | 5.66 | – | –
O=C(CCCCCCc1nc(-c2ccc(C(F)(F)F)cc2)no1)NO | 4.85 | 5.54 | < 5.00 | 5.10 | 4.82 | 5.72 | – | –
O=C(CCCCCCc1nc(-c2ccc(F)cc2)no1)NO | 5.24 | 5.71 | 5.06 | 5.20 | 4.71 | 5.94 | – | –
O=C(CCCCCCc1nc(-c2ccc(Cl)cc2)no1)NO | 4.93 | 6.01 | < 5.00 | 5.28 | 4.76 | 6.17 | – | –
O=C(CCCCCCc1nc(-c2ccccc2Cl)no1)NO | 5.05 | 6.12 | 5.44 | 5.90 | 4.99 | 6.72 | – | –
O=C(CCCCCCc1nc(-c2ccc([N+](=O)[O-])cc2)no1)NO | 5.27 | 6.54 | 5.59 | 6.64 | 5.51 | 7.15 | – | –
O=C(CCCCCCc1nc(-c2cccc([N+](=O)[O-])c2)no1)NO | 4.96 | 5.94 | 5.62 | 5.81 | 4.79 | 6.46 | – | –
O=C(CCCCCCc1nc(-c2cccs2)no1)NO | 5.36 | 6.49 | 5.72 | 6.29 | 5.02 | 6.92 | – | –
O=C(CCCCCCc1nc(-c2cccnc2)no1)NO | 5.27 | 6.46 | 5.74 | 6.41 | 5.22 | 7.10 | – | –
Nc1ccccc1NC(=O)CCCCCCc1nc(-c2ccccc2)no1 | 4.62 | 6.14 | < 5.00 | 6.14 | 6.02 | 6.68 | – | –
Cc1ccc(-c2noc(CCCCCCC(=O)Nc3ccccc3N)n2)cc1 | 5.04 | 6.34 | 5.08 | 6.17 | 6.39 | 6.85 | – | –
COc1ccc(-c2noc(CCCCCCC(=O)Nc3ccccc3N)n2)cc1 | 4.71 | 5.57 | < 5.00 | 5.41 | 5.10 | 6.04 | – | –
Nc1ccccc1NC(=O)CCCCCCc1nc(-c2ccc(C(F)(F)F)cc2)no1 | < 4.00 | 5.28 | < 5.00 | < 5.00 | 4.53 | 5.52 | – | –
Nc1ccccc1NC(=O)CCCCCCc1nc(-c2ccc(F)cc2)no1 | 4.51 | 5.51 | < 5.00 | 5.59 | 5.02 | 6.06 | – | –

SMILES | pIC50 (A549) | pIC50 (U-937) | pIC50 (Histone deacetylase 8) | pIC50 (Histone deacetylase 2) | pIC50 (NCI-H661) | pIC50 (Histone deacetylase 1) | IC50 (Histone deacetylase [1]) [µM] | IC50 (Histone deacetylase [2]) [µM]
Nc1ccccc1NC(=O)CCCCCCc1nc(-c2ccc(Cl)cc2)no1 | 4.86 | 5.36 | < 5.00 | 5.20 | 4.95 | 5.81 | – | –
Nc1ccccc1NC(=O)CCCCCCc1nc(-c2ccccc2Cl)no1 | < 4.00 | 5.16 | < 5.00 | < 5.00 | 5.08 | 5.38 | – | –
Nc1ccccc1NC(=O)CCCCCCc1nc(-c2ccc([N+](=O)[O-])cc2)no1 | < 4.00 | 4.99 | < 5.00 | < 5.00 | < 4.00 | 5.06 | – | –
Nc1ccccc1NC(=O)CCCCCCc1nc(-c2cccc([N+](=O)[O-])c2)no1 | 4.70 | 5.67 | < 5.00 | 5.28 | 5.14 | 6.09 | – | –
Nc1ccccc1NC(=O)CCCCCCc1nc(-c2cccs2)no1 | 4.54 | 5.80 | < 5.00 | 5.54 | 5.21 | 6.12 | – | –
Nc1ccccc1NC(=O)CCCCCCc1nc(-c2cccnc2)no1 | < 4.00 | 5.68 | < 5.00 | 5.50 | 4.81 | 5.98 | – | –
O=C(CCCCCCc1nc(-c2ccccc2)no1)C(F)(F)F | 5.11 | 6.39 | 6.12 | 5.98 | 6.28 | 5.27 | – | –
Cc1ccc(-c2noc(CCCCCCC(=O)C(F)(F)F)n2)cc1 | < 4.00 | 5.43 | 5.50 | 5.14 | 4.73 | < 5.00 | – | –
COc1ccc(-c2noc(CCCCCCC(=O)C(F)(F)F)n2)cc1 | 4.45 | 5.93 | 5.73 | 5.34 | 5.30 | 5.02 | – | –
O=C(CCCCCCc1nc(-c2ccc(C(F)(F)F)cc2)no1)C(F)(F)F | 4.54 | 5.71 | 5.99 | 5.55 | 5.19 | 5.08 | – | –
O=C(CCCCCCc1nc(-c2ccc(F)cc2)no1)C(F)(F)F | < 4.00 | 5.63 | 5.12 | < 5.00 | 4.90 | < 5.00 | – | –
O=C(CCCCCCc1nc(-c2ccc(Cl)cc2)no1)C(F)(F)F | 4.73 | 5.33 | 5.68 | 5.07 | 4.92 | < 5.00 | – | –
O=C(CCCCCCc1nc(-c2ccc([N+](=O)[O-])cc2)no1)C(F)(F)F | < 4.00 | 5.43 | 5.50 | 5.09 | 4.76 | < 5.00 | – | –
O=C(CCCCCCc1nc(-c2cccc([N+](=O)[O-])c2)no1)C(F)(F)F | 5.02 | 6.25 | 6.08 | 6.04 | 5.19 | 5.40 | – | –
O=C(CCCCCCc1nc(-c2cccs2)no1)C(F)(F)F | 4.93 | 5.89 | 6.02 | 5.79 | 5.12 | 5.29 | – | –
O=C(CCCCCc1nc2cc3ccccc3cc2[nH]1)C(F)(F)F | – | – | – | – | – | – | 0.6 | 1.8
Nc1ccccc1NC(=O)c1ccc(CNC(=O)OCc2cccnc2)cc1 [ENTINOSTAT] | – | 6.26 | – | – | – | – | – | –
